2 compounds from patent publication US6387956B1, “Methods of treating obsessive-compulsive spectrum disorders” (University of Cincinnati, priority 1999, dated 2002) can be followed below.

Structures are written as SMILES. Counter-ions that a name gives are not always drawn. Where only a bound is given, the exact number is not on record here.

In one data set the test system is OCD. The data set is described as follows: Example 2: case of a person with OCD, Y-BOCS. The format is in vivo, patient. The method, then: The tramadol hydrochloride therapy was then supplemented with 20 mg per day of fluoxetine, and three weeks later the fluoxetine was increased to 40 mg daily.
The test system of data set [1] is SRI-treatment refractory OCD. The data set is described as follows: Six week tramadol hydrochloride treatment of SRI-refractory OCD patients, assessed with Y-BOCS, HAM-D and CGI. It is filed as in vivo. On the procedure: (§1) Exclusion criteria for the study included a life-time DSM-IV diagnosis of mania, psychotic disorder, alcohol or substance abuse or dependence, prior history of hypersensitivity to tramadol or any other opioid, a history of seizures, including childhood febrile seizures, and any clinically relevant abnormal laboratory results or clinically unstable medical conditions. […] The patients were not concurrently receiving behavioral therapy.
(§2) Patients were evaluated using the Yale-Brown Obsessive Compulsive Scale (Y-BOCS), the Hamilton Rating Scale for Depression (HAM-D) and the Clinical Global Impression Scale (CGI). Subsequent to screening, the individuals received a six week treatment with tramadol hydrochloride. The tramadol hydrochloride was initially administered at 50 mg four times a day for the first week. If there was less than a 20% drop in baseline Y-BOCS scores by the end of week one, the tramadol hydrochloride dose was advanced slowly over 1 to 2 weeks to a maximum of 400 mg per day in 3 to 5 divided doses. Weekly measurements with the Y-BOCS, HAM-D and CGI were used to assess responses. Y-BOCS and HAM-D values at the start and end of the trial were compared using the Wilcoxon signed-ranks test.
The mean ± standard deviation dose of tramadol hydrochloride for the six patients completing at least two weeks was 254±119 mg/day (divided into from 3 to 5 doses). The mean ± standard deviation of baseline and endpoint Y-BOCS, HAM-D and severity of illness CGI and global improvement CGI are set forth below in Table 1. […] The scores for the patient who dropped out in week 6 were carried forward from week 5.

Data set [2] in a line: Weight and appetite during the six week tramadol hydrochloride study. It is filed as in vivo, patients. On the procedure: as §1, §2
Weekly mean ± standard deviation of weight and tramadol doses for the patients are set forth below in Table 2, while weights and tramadol hydrochloride doses for individual patients are set forth in Table 3. For data analysis purposes, when an individual's weight was not available, the weight from the previous week was carried forward.

Data set [3] is described as follows: Example 3: weight of a OCD patient during 11 months of tramadol hydrochloride. The format is in vivo. The method, then:
A OCD patient was treated with tramadol hydrochloride for a total of 11 months, during the last month of the study the patient was titrated off the tramadol hydrochloride. The only additional prescribed medication was alendronic acid ((4-amino-1-hydroxybutylidene)bisphosphonic acid) started at week 6 for osteoporosis unrelated to tramadol use. (The patient has a family history of osteoporosis and previous steroid use.) The patient's weight and tramadol hydrochloride doses are set forth in Table 4 below.

Another data set concerns Tourette's syndrome. Kind of data set: Example 4: case of a patient with major depressant disorder and Tourette's syndrome, motor tics. The format is in vivo. Particulars: 50 mg twice a day added to bupropion. On the procedure:
A patient with a history of recurrent major depressant disorder was treated with extended release bupropion (1-(3-chlorophenyl)-2-[(1,1-dimethylethyl)amino]-1-[…]), at a total dose of 300 mg per day (200 mg in the morning and 100 mg in the evening). […] The patient also reported a history of purging. […] The patient was diagnosed as having major depressant disorder and Tourette's syndrome.
The bupropion was supplemented with 50 mg twice a day of tramadol. […] The patient estimated that the number of tics was reduced by about two-thirds after starting the tramadol. The patient's bupropion dose was increased to 400 mg per day (200 mg twice a day), while the tramadol dose was maintained at 50 mg twice a day. The patient was informed the tramadol dose could be increased to 50 mg four times a day if the number of tics increased.

Setting [4] is: during tramadol hydrochloride treatment.

As for `COc1cccc(C2(O)CCCCC2CN(C)C)c1` (mixture of isomers) [tramadol hydrochloride, (±) cis-2-[(dimethylamino)methyl]-1(3-methoxyphenyl)cyclohexanolhydrochloride], the “time to reported decrease in obsessions and compulsions” value in the data set with OCD (50 mg twice a day) was not above 24 h. Moreover, in the data set on OCD (after one week of treatment, score prior to treatment 26), the Y-BOCS score is reported as 19. Further, the “withdrawal Y-BOCS score, average, after withdrawal” value in data set [1] (3 patients stopping tramadol hydrochloride without adding another agent, followed for two weeks) came out at 19.7. Also, the “withdrawal Y-BOCS score, average, at stopping” value in data set [1] (3 patients stopping tramadol hydrochloride without adding another agent, start of withdrawal) came to 14.3. Also, the “adverse event leading to discontinuation” value in data set [1] (another patient, during week 6) is “panic attack”; in data set [1] (one patient, during week 1), “nausea and exacerbation of trichotillomania”. Also, in data set [1] (setting [4]), the “Y-BOCS scores during treatment” value is reported as “decreased”. Further, in data set [1] (setting [4]), the “change in HAM-D scores” value is “no significant change”. In addition, the “Global Improvement CGI, mean ± SD, ENDPOINT” value in data set [1] (endpoint of six week treatment, six patients, baseline 5.2 ± 0.8, 2=much improved, 3=minimally improved, 4=no change) is reported as 2.3 ± 1.0. For the same compound, the “Severity of Illness CGI, mean ± SD, ENDPOINT” value in data set [1] (endpoint of six week treatment, six patients, baseline 5.3 ± 1.5, 4=moderately ill, 5=markedly ill, 6=severely ill) is 4.5 ± 1.2. For the same compound, the “HAM-D, mean ± SD, ENDPOINT” value in data set [1] (endpoint of six week treatment, six patients, baseline 27.7 ± 15.9) came out at 28.8 ± 9.8. The “urges or pressures to perform the compulsions, patient reported” value in data set [1] (obsessions persisted in a muted form) is given as “diminished”. Moreover, the “decrease in Y-BOCS scores within the first week” value in data set [1] (three of the seven patients, rapid onset of response) was “greater than 6 point”. The “compulsive urges after the first dose” value in data set [1] (two individuals, first 50 mg dose) was “alleviation”. Moreover, the “Weight, mean ± SD” value in data set [2] (Week 1, seven patients, baseline 173.36 ± 29.58) turned out to be 172.46 ± 29.9 lbs; in data set [2] (Week 2, seven patients), 170.39 ± 29.1 lbs; in data set [2] (Week 3, seven patients) it was 170.5 ± 29.64 lbs; in data set [2] (Week 4, seven patients), 169.46 ± 28.62 lbs; in data set [2] (Week 5, seven patients), 169.1 ± 28 lbs; in data set [2] (Week 6, seven patients), 167.5 ± 26.54 lbs. Moreover, in data set [2] (seven patients, six week treatment), the “weight lost on average” value was 5.86 pounds. In data set [2] (six week treatment), the “appetite, patient reported” value is reported as “decreased appetite”. For the same compound, the Weight in data set [3] (Month 3, 350 mg/day for 2 weeks, followed by 400 mg/day) came out at 127.0 lbs; in data set [3] (Month 4, 400 mg/day), 124.5 lbs; in data set [3] (Month 5, 400 mg/day) it was 124.75 lbs; in data set [3] (Month 6, 400 mg/day, alendronic acid started), 124.5 lbs; in data set [3] (Month 7, 400 mg/day), 127.0 lbs; in data set [3] (Month 8, 400 mg/day) it was 125.0 lbs. Moreover, the Weight amounted to 128.0 lbs in data set [3] (Month 9, 300 mg/day); 127.5 lbs in data set [3] (Month 10, 150 mg/day); 131.5 lbs in data set [3] (Month 11, 100 mg/day for 2 weeks, 50 mg/day for 1 week, then discontinued); 128.25 lbs in data set [3] (Week 2, 300 mg/day, baseline 129.5); 127.0 lbs in data set [3] (Week 3, 400 mg/day); 127.25 lbs in data set [3] (Week 4, 400 mg/day). The Weight was determined as 126.0 lbs in data set [3] (Week 6, 300 mg/day); 126.3 lbs in data set [3] (Week 7, 300 mg/day); 126.0 lbs in data set [3] (Week 8, 300 mg/day). The “weight after treatment was discontinued” value in data set [3] (after the tramadol hydrochloride treatment was discontinued) is recorded as “regained”. For the same compound, the “effect on weight during treatment” value in data set [3] (during the tramadol hydrochloride treatment) is given as “lost weight”.
Turning to `COc1cccc([C@]2(O)CCCC[C@H]2CN(C)C)c1` (racemic) [tramadol, (±)cis-2-[(dimethylamino)methyl]-1(3-methoxyphenyl) cyclohexanol], the side effects result in the data set with Tourette's syndrome is recorded as “without any side effects”.
